Results from patent US10039838B2, “Car peptide for homing, diagnosis and targeted therapy for pulmonary and fibrotic disorders” (Vascular BioSciences, priority 2010, dated 2018).
Entries after “also recorded” stand apart in the source; their conditions may differ. Primed or numbered codes have the meaning given here. Where no end group is shown, it is not given here. The star is where a group is joined. 5FAM = O=C1OC2(c3ccc(O)cc3Oc3cc(O)ccc32)c2ccc(C(=O)*)cc21; 5FAM′ = not defined here

Legend:
[1] = system: MCT induced hypertensive rat lung; test: Peptide targeting study in monocrotaline (MCT)-induced pulmonary arterial hypertension, immunohistochemistry; type: in vivo; settings: peptide 3.3 mg/kg via tail vein, 2 hours after injection, FIG. 4
Description: A rat model of monocrotaline (MCT)-induced pulmonary arterial hypertension was used for this study. Briefly, male Sprague-Dawley rats (150-200 g, Harlan Laboratories, IN) were administered with a single subcutaneous injection of monocrotaline at 60 mg/kg (Sigma-Aldrich, MO), while control rats were administered 0.9% saline (FIG. 1). Rats were randomly selected and studied for peptide distribution studies on 1, 3, 7, 14 or 21 days after the treatment of monocrotaline.
(§1) The following peptides were labeled with 5-carboxyfluorescein (5FAM) and used for the lung targeting studies: CAR, 5FAM-CARSKNKDC; VCAM1, CVHSPNKKCGGSK-5FAM; Control, 5FAM-CGGGGGGGC. All peptides were synthesized by Anaspec (Anaspec Inc., CA). Peptides were resolved in PBS at the concentrations of 0.5 mg/mL.
MCT-treated or untreated rats were injected with peptide solution at a dose of 3.3 mg/kg body weight via the tail vein. […]
To determine the localization of the peptides, paraffin-embedded tissue sections were immunostained with either hematoxylin and eosin (FIGS. 2-3) or rabbit anti-fluoroscein isothiocyanate (FITC) antibody (Invitrogen, CA) followed by horseradish peroxidase-labeled anti-rabbit IgG secondary antibody (FIG. 4). […] To quantify the targeting efficiency of the peptides to the lung, the immunostained sections were scanned by Aperio Scanscope XT and analyzed using ImageScope software (Aperio Technologies, CA).

[2] = system: severe occlusive PAH rat model; test: Blood pressure tracing, fasudil with CARK; type: in vivo
Description: (§2) Severe occlusive PAH rat model was used. Animals were injected with SU5416 (20 mg/kg; SUGEN Inc), followed by 3 weeks hypoxia, then followed by 2-10 weeks normoxia.
The peptide administered was a 7 amino acid variant to the CAR peptide used in previous examples. This variant (CARK) consisted of the following sequence: CARSKNK (SEQ ID NO: 2). In these experiments, CARK was administered at a dose of 3 mg/kg and fasudil administered at 1 mg/kg.
To measure the acute effects of fasudil with CARK administration on the right and left ventricular systolic pressure (or systolic aortic pressure), blood pressure measurements were performed on catheterized SU5w/hypoxia/normoxia-exposed rats with PAH.

[3] = system: mouse lungs after bleomycin injection; test: Peptide targeting study in bleomycin-induced acute lung injury and pulmonary fibrosis model, immunohistochemistry; type: in vivo; settings: for Distribution of staining in mouse lungs, acute lung injury model / Distribution of staining in mouse lungs, pulmonary fibrosis model: peptide 3.3 mg/kg via tail vein, 2 hours; for Distribution of staining in mouse lungs, pulmonary fibrosis model: 14 days after bleomycin injection, FIGS. 15-17
Description: A mouse model of bleomycin induced acute lung injury and pulmonary fibrosis was used for this study. Briefly, 6 WT C57Bl/6 male mice, 8-12 weeks were weighed and anesthetized, and given bleomycin (BL) intratracheally at 4 U/kg. At 3 days (acute lung injury model) and 14 days (pulmonary fibrosis model) after BL injection, peptides were injected via the tail vein.
as §1
BL-treated mice were injected with peptide solution at a dose of 3.3 mg/kg body weight via the tail vein. At two hours after the injection, mice were perfused with PBS containing 1% bovine serum albumin under the deep anesthesia with isofluorane at a rate of 3.0% and euthanized. Tissues were fixed by systemic perfusion with 10% buffered formalin via right ventricle. The lung was inflated by injection of 10% formalin through the trachea. Various organs were excised from the rat and fixed for additional twenty four hours and processed for immunohistochemistry.
To determine the localization of the peptides, paraffin-embedded tissue sections were immunostained with rabbit anti-fluoroscein isothiocyanate (FITC) antibody (Invitrogen, CA) followed by horseradish peroxidase-labeled anti-rabbit IgG secondary antibody. The peptide localization was then visualized by diaminobenzidine (DAB). An automated staining system, Discovery XT (Ventana, Ariz.) was used. To quantify the targeting efficiency of the peptides to the lung, the immunostained sections were scanned by Aperio Scanscope XT and analyzed using ImageScope software (Aperio Technologies, CA) (FIGS. 14-17).

[4] = system: severe occlusive PAH rat model; test: Blood pressure tracing, imatinib with CAR; type: in vivo; settings: CAR 3 mg/kg + imatinib 10 mg/kg, FIG. 25
Description: as §2
The peptide administered was CAR, CARSKNKDC (SEQ ID NO: 1). In this experiment, CAR was administered at a dose of 3 mg/kg and imatinib administered at 10 mg/kg.
To measure the acute effects of imatinib with CAR administration on the right and left ventricular systolic pressure, blood pressure measurements were performed on catheterized SU5w/hypoxia/normoxia-exposed rats with PAH.

[5] = system: cell surface heparan sulfate and heparin; settings: US 20090036349; Jarvinen and Ruoslahti 2007; cited from earlier work
[6] = 3 days after bleomycin injection, FIG. 14

5FAM-CARSKNKDC (cysteine pairing not given here) [CAR-FITC, CAR peptide labeled with 5-carboxyfluorescein, detected with anti-FITC antibody]
CAR-FITC staining of alveolar macrophages [1]: alveolar macrophages take up the stain

CARSKNK [CARK]
Effect of CARK co-administration with fasudil on systolic aortic pressure (SAP) ([2]; CARK 3 mg/kg + fasudil 1 mg/kg, compared to fasudil alone, FIG. 22): only a minor reduction in SAP
Effect of CARK co-administration with fasudil on LVSP ([2]; CARK 3 mg/kg + fasudil 1 mg/kg, compared to fasudil alone, FIG. 23): only a minor reduction
Effect of CARK co-administration on RVSP lowering by fasudil ([2]; CARK 3 mg/kg + fasudil 1 mg/kg, compared to fasudil alone, FIGS. 22-23): enhanced the blood pressure lowering effect of fasudil on RVSP
Effect on RVSP and LVSP of fasudil administered after cessation of CARK infusion ([2]; fasudil 10 mg/kg 30 minutes after cessation of CARK infusion, FIG. 24): sustained, pulmonary-specific effect

CARSKNKDC
Staining intensity of CAR compared with VCAM1, acute lung injury model [3, 6]: more intense
Distribution of staining in mouse lungs, acute lung injury model [3, 6]: stain the interstitium and inflammatory cells
Distribution of staining in mouse lungs, pulmonary fibrosis model [3]: Interstitial and inflammatory staining is seen in areas of lung fibrosis; also recorded: areas of dense fibrosis and spared areas showing little staining
Effect of CAR co-administration on RVSP lowering by imatinib [4]: enhanced the blood pressure lowering effect of imatinib on RVSP
Effect of CAR co-administration with imatinib on LVSP [4]: only a minor reduction in LVSP
Binding to cell surface heparan sulfate and heparin [5]: binds to cell surface heparan sulfate and heparin

CVHSPNKKCGGSK-5FAM (CVHSPNKKCGGSK-{5FAM′}; cysteine pairing not given here) [VCAM1, reference compound]
Distribution of staining in mouse lungs, acute lung injury model [3, 6]: stain the interstitium and inflammatory cells
Distribution of staining in mouse lungs, pulmonary fibrosis model [3]: areas of mild fibrosis and spared areas showing little staining
